The text below walks through data of the METLIN SMRT retention time set (Domingo-Almenara et al. 2019).

The nature of the series: gradient 5% acetonitrile 3 min, to 50% in 2 min, to 85% in 15 min, held 3 min, 100 µL/min. The note with it: column: Zorbax Extend-C18 2.1 x 50 mm; eluents: water / acetonitrile, 0.1% formic acid. An outline of the steps:
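Retention time was recorded from adduct peaks, which were picked computationally and each inspected manually. Pure standards ran in mixtures of ~100 molecules on HPLC coupled to a quadrupole time-of-flight mass spectrometer, in positive and negative ionization mode, through a Zorbax Extend-C18 column (2.1 × 50 mm, 1.8 μm) at 100 μL/min. Eluents were water and acetonitrile, each with 0.1% formic acid.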
In turn, `CN1C(=O)C2CCCCN2c2ccc(C(=O)NCCc3ccco3)cc21` (centres undefined) came in with an RP-LC retention time of 815 s.

In turn, `CCOc1ccccc1-c1nn2c(CSc3ccccc3)nnc2s1` displayed an RP-LC retention time of 1120 s. To `Cc1nc(C2CCCN2Cc2ccccc2C)n[nH]1` (centres undefined) belongs 546 s.

On to `CCNC(=O)c1cnn(-c2ccc(-c3nc(C(C)C)no3)cn2)c1C`, for which the RP-LC retention time was 983 s.

`C=CCNC(=O)c1cn(-c2ccc(-c3nc(CC)no3)cn2)cn1` came in with an RP-LC retention time of 750 s. The result for `CCOc1ccc(NC(=O)Cn2nc3cc(C)nc(-c4ccccc4)n3c2=O)cc1` reads 705 s; that for `CC(C)n1cnc2c(C(=O)N[C@H]3CN4CCC3CC4)cc(Cl)cc21`, 692 s. The result for `Cc1cc(C(=O)NCCCc2ccccc2)c2c(=O)n(C)c(=O)n(C)c2n1` reads 750 s; that for `CC(C(=O)Nc1ccc(Cl)cc1F)C1CCN(C(=O)Nc2ccc(Cl)cc2)CC1` (centres undefined), 1020 s; that for `CCN1CCC(CCNC(=O)c2cc3c(s2)N(CC)CCCC3)CC1`, 685 s. Turning to `O=C(NCc1cccs1)c1nnc(-c2ccc(S(=O)(=O)N3CCCCC3)cc2)o1`, the RP-LC retention time was 939 s. Regarding `CCOc1ccc(Nc2c(C(=O)N3CCC(C)CC3)cnc3nc(C)ccc23)cc1`, the RP-LC retention time came out at 661 s. As to `Cn1nc(C(=O)Nc2cccnc2)ccc1=O`, the RP-LC retention time worked out at 493 s. To `O=C(NCc1ccco1)c1ccc2c(c1)N(Cc1ccc(F)cc1)C(=O)CO2` belongs 830 s.

The molecule `Cc1ccccc1NC(=O)Cn1nc(C(=O)N2CCOCC2)c2ccccc21` gave an RP-LC retention time of 735 s. The result for `CCN(CC)C(=O)c1ccc2c(c1)N(CC(=O)NC1CCCCC1)C(=O)C1CCCCN21` (centres undefined) reads 838 s; that for `CCS(=O)(=O)N1CCCCC1c1nc(-c2cccnc2)n[nH]1` (centres undefined), 615 s.

Consider `Fc1ccc(-c2ccc(CNc3ncn[nH]3)o2)cc1Cl`, for which the RP-LC retention time is 692 s.

The molecule `CCn1cc(CCNC(=O)c2c(F)cccc2Cl)c2cccnc21` returned an RP-LC retention time of 708 s. `CCC(c1cccs1)N1C(=O)[C@H]2CN(S(=O)(=O)c3ccc(F)c(C)c3)C[C@H]2C1=O` (some centres undefined) gave an RP-LC retention time of 978 s.

Take `COc1ccc(NCc2ccc3c(c2)n(C)c(=O)n3C)cc1Cl`: the RP-LC retention time amounted to 1150 s. To `Cc1nn(-c2nc(-c3ccccc3)cs2)c(C)c1CC(=O)Nc1ccccc1Cl` belongs 1220 s. The result for `CCCn1cc(CCNS(=O)(=O)c2ccccc2CC)c2cccnc21` reads 923 s. To `O=c1c2oc3ccccc3c2ncn1Cc1nc(-c2ccc(F)c(Cl)c2)no1` belongs 1050 s. On to `COc1ccc(N2CCN(C(=O)C3CCc4nc(N5CCCC5)ncc4C3)CC2)cc1` (centres undefined), for which the RP-LC retention time turned out to be 626 s. In turn, `CCOc1ccc(NC(=O)N2CCC3(CC2)NC(=O)c2ccc(Cl)cc2N3C)cc1` displayed an RP-LC retention time of 904 s. `Cc1cc(C)cc(NC(=O)N2CCC(n3cnc4c(C)cccc4c3=O)CC2)c1` showed an RP-LC retention time of 911 s. The result for `CCc1noc(NC(C)=O)c1-c1ccc(OC)c(S(=O)(=O)Nc2ccccc2)c1` reads 764 s. As for `COC(=O)[C@H](Cc1c[nH]c2ccccc12)NC(=O)c1ccc2c(c1)C(=O)N(C1CC1)C2=O`, the RP-LC retention time was 830 s.

As to `Cc1[nH]c(C(=O)N2CCC(CC(=O)NC(C)C)CC2)c(C)c1C(=O)OC(C)C`, the RP-LC retention time was 713 s.

Consider `NCC(O)C1CCCCCCC1` (centres undefined), for which the RP-LC retention time amounted to 633 s. The result for `CCCNC(=O)C1CCCN(c2nnc(C)c3c(C)n(-c4ccc(Cl)cc4)nc23)C1` (centres undefined) reads 693 s; that for `C[C@]12CC[C@H]3[C@@H](C[C@H](F)C4=CC(=O)CC[C@@]43C)[C@@H]1CC[C@@H]2O`, 798 s.

With `COc1cccc(NC(=O)Cn2nc3c(Oc4ccc(Cl)cc4)nccn3c2=O)c1`, the RP-LC retention time worked out at 877 s. To `CC(C)c1nnc(C2CCN(C(=O)c3ccc(S(=O)(=O)N4CCOCC4)cc3)CC2)o1` belongs 659 s; to `Cc1ccccc1NC(=O)Cn1nc2c(N(C)C3CCCCC3)nccn2c1=O`, 745 s. The result for `Cc1oc(-c2[nH]ncc2C(=O)N(C)C)cc1S(=O)(=O)NCC(C)C` reads 671 s; that for `Cc1cc(N2CCN(C(=O)Nc3ccccc3F)CC2)nc(N2CCOCC2)n1`, 617 s.

`CN1C(=O)c2cc(C(=O)NCc3ccccc3)nn2CC1(C)C(=O)NCc1ccccc1` (centres undefined) gave an RP-LC retention time of 685 s.

Turning to `Cc1sc(NC(=O)Cn2c(=O)oc3ccccc32)nc1-c1ccc(Cl)cc1`, the RP-LC retention time was determined as 1060 s.

Turning to `COc1ccccc1C1(CNS(=O)(=O)c2ccc3c(c2)CCCC3)CCOCC1`, the RP-LC retention time came to 1000 s.

Turning to `CCn1cnc(S(=O)(=O)N2CCCC(C(=O)Nc3ccc(C)cc3)C2)c1` (centres undefined), the RP-LC retention time was found to be 748 s. The result for `CN(C)c1ccc(C(=O)Nc2cc(-c3ccsc3)no2)cc1` reads 961 s; that for `CC(C(=O)NCCCN1CCCCCC1)n1c(=O)c(C(F)(F)F)nc2ccccc21` (centres undefined), 611 s; that for `Nc1cccc2c1CN(C1CCC(=O)NC1=O)C2=O` (centres undefined), 595 s. Molecule `CCn1c(N2CCCC(C(=O)NCC3CCN(Cc4ccccc4C)CC3)C2)cc(=O)n(C)c1=O` (centres undefined) showed an RP-LC retention time of 643 s.

In turn, `O=C(NCC1CCN(c2ncccn2)CC1)Nc1c(F)cccc1F` yielded an RP-LC retention time of 610 s.

As for `Cc1nc(-c2cn(C(C)C)c3ncccc23)sc1C(=O)Nc1ccc(F)cc1`, the RP-LC retention time is 947 s. The molecule `COc1ccccc1-c1noc(Cn2ncn3nc(-c4ccc(C)cc4C)cc3c2=O)n1` showed an RP-LC retention time of 1130 s. The result for `Cc1cc(C)cc(NC(=O)N(C)CCc2noc(COc3ccccc3)n2)c1` reads 949 s; that for `O=C1Cc2ccccc2N1c1c(Cl)cccc1Cl`, 875 s; that for `Cc1ccc(-c2noc(Cn3c(=O)n(C(C)C)c(=O)c4ccccc43)n2)cc1`, 1150 s. To `CC(C)(C)C(=O)N1CCC2(CC1)CN(Cc1ccccc1)CC2CO` (centres undefined) belongs 607 s; to `Oc1cccc(-c2nc3cnc(Br)cn3c2Nc2ccc3c(c2)OCO3)c1`, 786 s; to `Cc1ccccc1NC(=O)C1CCCN(C(=O)c2nn(C)c3c2CN(C(=O)CC2CCCC2)CC3)C1` (centres undefined), 877 s. To `Cc1cc2c(c(=O)n(-c3ccc(F)cc3)c(=O)n2CC(=O)Nc2cccc(Br)c2)n1C` belongs 861 s; to `COC(=O)c1ccccc1Nc1c(-c2ccc(F)cc2)nc2cnc(Br)cn12`, 1120 s. `CCOc1ccc2nc(NC(=O)CCc3csc(NC(=O)c4ccco4)n3)sc2c1` registered an RP-LC retention time of 844 s. The molecule `Cc1ccc(C)c(-c2cc3c4nn(CC(=O)Nc5cc(F)ccc5F)c(=O)n4ccn3n2)c1` gave an RP-LC retention time of 1050 s.
